From ChEMBL document CHEMBL1201862, “PubChem BioAssay data set” (2004)
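These data come from cells grown in 96-well plates and exposed to compound for 48 hours at five concentrations. Here, GI50 denotes the concentration required for 50% inhibition of growth.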 The source made the active and inactive calls. Rule as the data show it: active = GI50 up to about 1.1 µM and inactive = higher.

Experiments:
Assay in all cases: inhibition of tumour cell growth, NCI panel, 48 h
SK-MEL-2 = tested on: SK-MEL-2
HL-60 = tested on: HL-60
OVCAR-3 = tested on: OVCAR-3
A498 = tested on: A498
HOP-62 = tested on: HOP-62
UACC-62 = tested on: UACC-62
NCI-H226 = tested on: NCI-H226
SK-MEL-28 = tested on: SK-MEL-28
RXF 393 = tested on: RXF 393
HCC 2998 = tested on: HCC 2998
UACC-257 = tested on: UACC-257
LOX IMVI = tested on: LOX IMVI
MDA-MB-435 = tested on: MDA-MB-435
UO-31 = tested on: UO-31
SF-268 = tested on: SF-268
CCRF-CEM = tested on: CCRF-CEM
NCI-H23 = tested on: NCI-H23
786-0 = tested on: 786-0
NCI-H460 = tested on: NCI-H460
HCT-116 = tested on: HCT-116
U-251 = tested on: U-251
TK-10 = tested on: TK-10
T47D = tested on: T47D
MDA-MB-231 = tested on: MDA-MB-231
SNB-19 = tested on: SNB-19
COLO 205 = tested on: COLO 205
DU-145 = tested on: DU-145
SR = tested on: SR
MOLT-4 = tested on: MOLT-4
SW-620 = tested on: SW-620
SK-OV-3 = tested on: SK-OV-3
HOP-92 = tested on: HOP-92
HCT-15 = tested on: HCT-15
SF-295 = tested on: SF-295
SNB-75 = tested on: SNB-75
PC-3 = tested on: PC-3
HT-29 = tested on: HT-29
MDA-N = tested on: MDA-N
EKVX = tested on: EKVX
CAKI-1 = tested on: CAKI-1
IGROV-1 = tested on: IGROV-1
KM12 = tested on: KM12
K562 = tested on: K562
OVCAR-8 = tested on: OVCAR-8
OVCAR-4 = tested on: OVCAR-4
Hs-578T = tested on: Hs-578T
A549 = tested on: A549
NCI/ADR-RES = tested on: NCI/ADR-RES
SN12C = tested on: SN12C
ACHN = tested on: ACHN
Malme-3M = tested on: Malme-3M
M14 = tested on: M14
OVCAR-5 = tested on: OVCAR-5
SK-MEL-5 = tested on: SK-MEL-5
SF-539 = tested on: SF-539
NCI-H522 = tested on: NCI-H522
RPMI-8226 = tested on: RPMI-8226
MCF7 = tested on: MCF7
BT-549 = tested on: BT-549

## CC(=O)OCC1OC(n2c3c(c(-c4ccco4)c(C#N)c2=S)CCCC3)C(OC(C)=O)C(OC(C)=O)C1OC(C)=O (stereo not given)
SK-MEL-2
  GI50: 17.9 µM (inactive)
HL-60
  GI50: > 10 µM (inactive)
OVCAR-3
  GI50: 23.2 µM (inactive)
A498
  GI50: 12.1 µM (inactive)
HOP-62
  GI50: 13.3 µM (inactive)
UACC-62
  GI50: > 10 µM (inactive)
NCI-H226
  GI50: 21.9 µM (inactive)
SK-MEL-28
  GI50: > 31.6 µM (inactive)
RXF 393
  GI50: > 10 µM (inactive)
HCC 2998
  GI50: > 10 µM (inactive)
UACC-257
  GI50: > 31.6 µM (inactive)
LOX IMVI
  GI50: > 31.6 µM (inactive)
MDA-MB-435
  GI50: > 100 µM (inactive)
UO-31
  GI50: 22.6 µM (inactive)
SF-268
  GI50: 13.5 µM (inactive)
CCRF-CEM
  GI50: > 10 µM (inactive)
NCI-H23
  GI50: > 20.2 µM (inactive)
786-0
  GI50: 25.1 µM (inactive)
NCI-H460
  GI50: 22.9 µM (inactive)
HCT-116
  GI50: 21.3 µM (inactive)
U-251
  GI50: > 10 µM (inactive)
TK-10
  GI50: 15.7 µM (inactive)
T47D
  GI50: > 31.6 µM (inactive)
MDA-MB-231
  GI50: 29.6 µM (inactive)
SNB-19
  GI50: 15.6 µM (inactive)
COLO 205
  GI50: > 31.6 µM (inactive)
DU-145
  GI50: > 31.6 µM (inactive)
SR
  GI50: > 31.6 µM (inactive)
MOLT-4
  GI50: > 31.6 µM (inactive)
SW-620
  GI50: > 100 µM (inactive)
SK-OV-3
  GI50: > 10 µM (inactive)
HOP-92
  GI50: 7.36 µM (inactive)
HCT-15
  GI50: > 31.6 µM
SF-295
  GI50: 13.7 µM (inactive)
SNB-75
  GI50: 8.2 µM (inactive)
PC-3
  GI50: > 10 µM (inactive)
HT-29
  GI50: > 31.6 µM (inactive)
MDA-N
  GI50: > 31.6 µM (inactive)
EKVX
  GI50: 16.6 µM (inactive)
CAKI-1
  GI50: 29.7 µM (inactive)
IGROV-1
  GI50: 21.9 µM (inactive)
KM12
  GI50: > 31.6 µM (inactive)
K562
  GI50: > 10 µM (inactive)
OVCAR-8
  GI50: 31.6 µM (inactive)
OVCAR-4
  GI50: 9.16 µM (inactive)
Hs-578T
  GI50: 29.4 µM (inactive)
A549
  GI50: 30 µM (inactive)
NCI/ADR-RES
  GI50: 17.1 µM (inactive)
SN12C
  GI50: > 31.6 µM (inactive)
ACHN
  GI50: 17.8 µM (inactive)
Malme-3M
  GI50: > 31.6 µM (inactive)
M14
  GI50: > 100 µM (inactive)
OVCAR-5
  GI50: > 31.6 µM (inactive)
SK-MEL-5
  GI50: 16.3 µM (inactive)
SF-539
  GI50: 17.6 µM (inactive)
NCI-H522
  GI50: 16.3 µM (inactive)
RPMI-8226
  GI50: > 100 µM (inactive)
MCF7
  GI50: > 76.2 µM (inactive)

## COC(=O)C1=C(CCCCO[Si](C)(C)C(C)(C)C)NC(=O)N2[C@H](CCOCc3ccccc3)CC[C@@H]12
SK-MEL-2
  GI50: 75.3 µM (inactive)
OVCAR-3
  GI50: 29.4 µM (inactive)
A498
  GI50: > 100 µM (inactive)
HOP-62
  GI50: > 100 µM (inactive)
UACC-62
  GI50: > 100 µM (inactive)
NCI-H226
  GI50: > 100 µM (inactive)
SK-MEL-28
  GI50: > 100 µM (inactive)
HCC 2998
  GI50: > 100 µM (inactive)
UACC-257
  GI50: 24.7 µM (inactive)
MDA-MB-435
  GI50: 39.2 µM (inactive)
UO-31
  GI50: 43.9 µM (inactive)
BT-549
  GI50: 45.8 µM (inactive)
SF-268
  GI50: > 100 µM (inactive)
NCI-H23
  GI50: 17.6 µM (inactive)
786-0
  GI50: 44.7 µM (inactive)
NCI-H460
  GI50: 38 µM (inactive)
HCT-116
  GI50: 24 µM (inactive)
U-251
  GI50: 23.7 µM (inactive)
TK-10
  GI50: > 100 µM (inactive)
T47D
  GI50: 35.4 µM (inactive)
MDA-MB-231
  GI50: 44.9 µM (inactive)
SNB-19
  GI50: 78.3 µM (inactive)
COLO 205
  GI50: 27.9 µM (inactive)
DU-145
  GI50: 75.2 µM (inactive)
MOLT-4
  GI50: > 100 µM (inactive)
SK-OV-3
  GI50: > 100 µM (inactive)
HOP-92
  GI50: 32.1 µM (inactive)
HCT-15
  GI50: 40.6 µM
SF-295
  GI50: 33.1 µM (inactive)
SNB-75
  GI50: 43.7 µM (inactive)
PC-3
  GI50: 26.9 µM (inactive)
MDA-N
  GI50: 55.3 µM (inactive)
EKVX
  GI50: 31.5 µM (inactive)
CAKI-1
  GI50: 34 µM (inactive)
KM12
  GI50: 49.5 µM (inactive)
K562
  GI50: 87.9 µM (inactive)
OVCAR-4
  GI50: > 100 µM (inactive)
A549
  GI50: 26.7 µM (inactive)
NCI/ADR-RES
  GI50: 32.7 µM (inactive)
SN12C
  GI50: 30.1 µM (inactive)
ACHN
  GI50: > 100 µM (inactive)
Malme-3M
  GI50: 40 µM (inactive)
M14
  GI50: 58.3 µM (inactive)
OVCAR-5
  GI50: > 100 µM (inactive)
SK-MEL-5
  GI50: 13 µM (inactive)
SF-539
  GI50: 33.7 µM (inactive)
NCI-H522
  GI50: 15.5 µM (inactive)
RPMI-8226
  GI50: 49.4 µM (inactive)
MCF7
  GI50: 34.4 µM (inactive)

## O=[N+]([O-])c1ccc(OCc2nnc(CCCCCCCCc3nnc(COc4ccc([N+](=O)[O-])cc4)o3)o2)cc1
SK-MEL-2
  GI50: > 100 µM (inactive)
OVCAR-3
  GI50: > 100 µM (inactive)
A498
  GI50: > 100 µM (inactive)
UACC-62
  GI50: > 100 µM (inactive)
NCI-H226
  GI50: > 100 µM (inactive)
SK-MEL-28
  GI50: > 100 µM (inactive)
RXF 393
  GI50: 25.1 µM (inactive)
HCC 2998
  GI50: > 100 µM (inactive)
UACC-257
  GI50: > 100 µM (inactive)
MDA-MB-435
  GI50: > 100 µM (inactive)
UO-31
  GI50: > 100 µM (inactive)
BT-549
  GI50: > 100 µM (inactive)
SF-268
  GI50: 44.5 µM (inactive)
NCI-H23
  GI50: 81.5 µM (inactive)
786-0
  GI50: > 100 µM (inactive)
NCI-H460
  GI50: > 100 µM (inactive)
HCT-116
  GI50: 77.6 µM (inactive)
U-251
  GI50: 95.9 µM (inactive)
TK-10
  GI50: > 100 µM (inactive)
MDA-MB-231
  GI50: 32.7 µM (inactive)
SNB-19
  GI50: > 100 µM (inactive)
COLO 205
  GI50: > 100 µM (inactive)
DU-145
  GI50: > 100 µM (inactive)
MOLT-4
  GI50: > 100 µM (inactive)
SW-620
  GI50: > 100 µM (inactive)
SK-OV-3
  GI50: 40.6 µM (inactive)
HOP-92
  GI50: > 100 µM (inactive)
HCT-15
  GI50: > 100 µM
SF-295
  GI50: > 100 µM (inactive)
SNB-75
  GI50: > 100 µM (inactive)
PC-3
  GI50: > 100 µM (inactive)
HT-29
  GI50: > 100 µM (inactive)
EKVX
  GI50: > 100 µM (inactive)
IGROV-1
  GI50: > 100 µM (inactive)
KM12
  GI50: 55.3 µM (inactive)
K562
  GI50: > 100 µM (inactive)
OVCAR-4
  GI50: > 100 µM (inactive)
A549
  GI50: > 100 µM (inactive)
NCI/ADR-RES
  GI50: > 100 µM (inactive)
SN12C
  GI50: > 100 µM (inactive)
ACHN
  GI50: > 100 µM (inactive)
Malme-3M
  GI50: > 100 µM (inactive)
M14
  GI50: > 100 µM (inactive)
OVCAR-5
  GI50: > 100 µM (inactive)
SK-MEL-5
  GI50: > 100 µM (inactive)
NCI-H522
  GI50: > 100 µM (inactive)
RPMI-8226
  GI50: > 100 µM (inactive)
MCF7
  GI50: > 100 µM (inactive)
